According to patent US20240115745A1, “COMPOUNDS COMPRISING A FIBROBLAST ACTIVATION PROTEIN LIGAND AND USE THEREOF” (3B PHARMACEUTICALS GMBH, priority 2021, published 2024):
Read-outs that look alike come from different tables or passages of the source. *1 amine or outer side, *2 acyl side, *3 side chain or, on linkers, in order; H or OH if unused. Where a SMILES comes first, the peptide text is derived from it. Bridges are numbered along the chain shown (N, C = ends). [ ]: non-standard residue; d: D form. The star is where a group is joined. ξ: configuration not given here. X4 = O=C(O)CN1CCN(CC(=O)O)CCN(CC(=O)NCCCOCCOCCOCCCN*)CCN(CC(=O)O)CC1; X1 = NC(=O)CC[C@H](N[*:1])C(=O)C[C@@H](Cc1ccccc1)C(=O)[*:2]; X11 = O=C(O)CN1CCN(CC(=O)O)CCN([C@H](CCC(=O)*)C(=O)O)CC1; DOTA = O=C(O)CN1CCN(CC(=O)O)CCN(CC(=O)*)CCN(CC(=O)O)CC1; Maleimide(3,4-diyl) = O=C1NC(=O)C([*:2])=C1[*:1]; X9 = O=C(C1CCC[C@H]1C(=O)[*:2])[C@@H]1CCCN1[*:1]; X8 = NCCNCC(CNCCN)C(=O)NCCCOCCOCCOCCCN*; X7 = CN1C(=O)C([*:1])=C([*:2])C1=O; ξThr(3R) = C[C@@H](O)C(N)C(=O)O; Suc = O=C(CCC(=O)[*:2])[*:1]; 4Amb = NCc1ccc(C(=O)O)cc1; hCys = N[C@@H](CCS)C(=O)O; Nle = CCCC[C@H](N)C(=O)O; X3 = NCCNCC(CNCCN)C(=O)*; Hexanoyl = CCCCCC(=O)*; AEEA = NCCOCCOCC(=O)O; CO = O=C([*:1])[*:2]; ξP = O=C(O)C1CCCN1; βAla = NCCC(=O)O; NHBu = CCCCN*

What was measured:
[1] = target: T1, FAP-expressing human WI-38 fibroblasts (Homo sapiens, UniProt Q12884); experiment: Competitive FACS binding assay;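 note: flow cytometry read-out of median Cy5 fluorescence on the cells, plotted versus test compound concentration, with IC50 derived by four-parameter logistic curve fitting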
T1 construct: FAP-expressing human WI-38 fibroblasts (ECACC) were cultured in EMEM; host or cells: WI-38 human fibroblasts
T1 sequence (Q12884 whole entry): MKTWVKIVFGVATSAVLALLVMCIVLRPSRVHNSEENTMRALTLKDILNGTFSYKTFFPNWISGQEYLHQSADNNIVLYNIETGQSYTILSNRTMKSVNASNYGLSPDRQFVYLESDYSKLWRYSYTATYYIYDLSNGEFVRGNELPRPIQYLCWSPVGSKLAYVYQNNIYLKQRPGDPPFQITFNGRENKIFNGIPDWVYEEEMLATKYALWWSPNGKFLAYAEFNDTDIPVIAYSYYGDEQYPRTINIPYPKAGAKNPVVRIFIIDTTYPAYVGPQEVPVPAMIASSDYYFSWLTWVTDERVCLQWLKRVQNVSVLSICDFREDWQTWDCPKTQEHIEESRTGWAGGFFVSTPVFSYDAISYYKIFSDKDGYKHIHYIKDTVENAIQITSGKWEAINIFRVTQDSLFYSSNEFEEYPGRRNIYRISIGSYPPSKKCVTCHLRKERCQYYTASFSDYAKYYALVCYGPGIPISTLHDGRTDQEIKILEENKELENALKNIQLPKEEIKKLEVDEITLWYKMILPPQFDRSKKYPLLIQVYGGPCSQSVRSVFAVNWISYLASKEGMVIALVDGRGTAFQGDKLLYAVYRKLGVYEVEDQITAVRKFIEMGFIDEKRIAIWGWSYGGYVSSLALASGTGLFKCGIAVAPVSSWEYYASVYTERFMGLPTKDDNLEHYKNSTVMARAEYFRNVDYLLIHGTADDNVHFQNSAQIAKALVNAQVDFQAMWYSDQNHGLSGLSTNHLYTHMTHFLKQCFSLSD

Recombinant human FAP = target: T2, Recombinant human FAP (Homo sapiens, UniProt Q12884); experiment: FRET-based FAP protease activity assay; assay type: biochemical
T2 construct: purchased R&D systems 3715-SE
T2 sequence (Q12884 26-760 limits assumed): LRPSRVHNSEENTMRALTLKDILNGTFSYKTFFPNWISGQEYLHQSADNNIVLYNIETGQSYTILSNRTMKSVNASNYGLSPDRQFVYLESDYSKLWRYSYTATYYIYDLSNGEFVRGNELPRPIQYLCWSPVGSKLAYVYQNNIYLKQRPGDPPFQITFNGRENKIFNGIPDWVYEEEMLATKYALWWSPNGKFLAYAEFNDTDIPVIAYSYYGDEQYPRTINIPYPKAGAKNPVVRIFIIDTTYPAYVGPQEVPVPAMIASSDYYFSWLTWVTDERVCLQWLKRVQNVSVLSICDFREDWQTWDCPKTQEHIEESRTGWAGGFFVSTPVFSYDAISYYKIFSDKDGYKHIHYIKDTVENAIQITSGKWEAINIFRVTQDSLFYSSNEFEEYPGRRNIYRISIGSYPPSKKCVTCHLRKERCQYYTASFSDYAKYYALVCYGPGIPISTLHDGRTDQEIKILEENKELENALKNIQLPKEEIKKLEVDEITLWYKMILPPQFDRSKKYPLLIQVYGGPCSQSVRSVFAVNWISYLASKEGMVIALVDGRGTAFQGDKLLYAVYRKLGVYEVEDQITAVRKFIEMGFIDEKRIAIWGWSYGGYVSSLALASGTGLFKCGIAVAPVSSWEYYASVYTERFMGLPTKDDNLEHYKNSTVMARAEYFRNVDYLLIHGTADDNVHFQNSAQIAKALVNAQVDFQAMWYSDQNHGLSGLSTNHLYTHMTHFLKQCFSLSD

[2] = competition with 3 nM Cy5-labeled compound, WI-38 fibroblasts, 4° C., 1 hour, read-out: pIC50 Category (FACS) (converted)
[3] = recombinant human FAP, FRET-peptide substrate, 37° C., read-out: pIC50 Category (Activity) (converted)
[4] = read-out: pIC50 (highest activity categories, FACS binding) (converted)
[5] = read-out: pIC50 (highest activity categories, FAP activity) (converted)

SMILES	IC50 [1, 2] [nM]	IC50 (Recombinant human FAP; [3]) [nM]	IC50 [1, 4] [nM]	IC50 (Recombinant human FAP; [5]) [nM]
CCCC[C@H](NC(=O)CCC(=O)NCCCOCCOCCOCCCNC(=O)CC[C@H](C(=O)O)N1CCN(CC(=O)O)CCN(CC(=O)O)CC1)C(=O)N[C@H]1CSSC[C@@H](C(=O)NCCC(=O)O)NC(=O)[C@H](Cc2ccccc2)NC(=O)[C@H](CCC(N)=O)NC(=O)[C@H]([C@@H](C)O)NC(=O)[C@@H]2CCCN2C(=O)[C@@H]2CCCN2C1=O [Compound 1018, NODAGA-Ttds-Nle-[Cys-Pro-Pro-Thr-Gln-Phe-Cys]-Bal-OH]	< 100	< 100		
CCCC[C@H](NC(=O)CCC(=O)NCCCOCCOCCOCCCNC(=O)C(CNCCN)CNCCN)C(=O)N[C@H]1CSSC[C@@H](C(=O)NCCC(=O)O)NC(=O)[C@H](Cc2ccccc2)NC(=O)[C@H](CCC(N)=O)NC(=O)[C@H]([C@@H](C)O)NC(=O)[C@@H]2CCCC2C(=O)[C@@H]2CCCN2C1=O (stereo partly drawn) [Compound 1019, N4Ac-Ttds-Nle-[Cys-Pro-Pro-Thr-Gln-Phe-Cys]-Bal-OH] ({X8-Suc}-[Nle]C[X9]TQFC[βAla]-OH; disulfide 2-7)	< 100	< 100		
CCCCCC(=O)N[C@H]1CSSC[C@@H](C(=O)N[C@@H](CC(=O)O)C(=O)N[C@@H](CCCCNC(=O)CC[C@H](C(=O)O)N2CCN(CC(=O)O)CCN(CC(=O)O)CC2)C(N)=O)NC(=O)[C@H](Cc2ccccc2)NC(=O)[C@H](CCC(=O)O)NC(=O)[C@H]([C@@H](C)O)NC(=O)[C@@H]2CCCN2C(=O)[C@@H]2CCCN2C1=O [Compound 1020, Hex-[Cys-Pro-Pro-Thr-Glu-Phe-Cys]-Asp-Lys(NODAGA)-NH2] (Hexanoyl-CPPTEFCDK(X11)-NH2; disulfide 1-7)	< 100	< 100		
CCCCCC(=O)N[C@H]1CSSC[C@@H](C(=O)N[C@@H](CC(=O)O)C(=O)N[C@@H](CCCCNC(=O)C(CNCCN)CNCCN)C(N)=O)NC(=O)[C@H](Cc2ccccc2)NC(=O)[C@H](CCC(=O)O)NC(=O)[C@H]([C@@H](C)O)NC(=O)[C@@H]2CCCN2C(=O)[C@@H]2CCCN2C1=O [Compound 1021, Hex-[Cys-Pro-Pro-Thr-Glu-Phe-Cys]-Asp-Lys(N4Ac)—NH2] (Hexanoyl-CPPTEFCDK(X3)-NH2; disulfide 1-7)	< 100	< 100		
CCCCCC(=O)N[C@H]1CSC2=C(SC[C@@H](C(=O)N[C@@H](CC(=O)O)C(N)=O)NC(=O)[C@H](Cc3ccccc3)NC(=O)[C@H](CCC(N)=O)NC(=O)[C@H]([C@@H](C)O)NC(=O)[C@@H]3CCCN3C(=O)[C@@H]3CCCN3C1=O)C(=O)NC2=O [Compound 2001, Hex-[Cys(mli)-Pro-Pro-Thr-Gln-Phe-Cys]-Asp-NH2] (HELM PEPTIDE1{[CCCCCC(=O)[*:2]].C.P.P.T.Q.F.C.D.[am]}|CHEM1{[O=C1NC(=O)C([*:2])=C1[*:1]]}$PEPTIDE1,CHEM1,2:R3-1:R1|PEPTIDE1,CHEM1,8:R3-1:R2$$$V2.0)	< 100	< 100		
CCCCCC(=O)N[C@H]1CCSSCC[C@@H](C(=O)N[C@@H](CC(=O)O)C(N)=O)NC(=O)[C@H](Cc2ccccc2)NC(=O)[C@H](CCC(N)=O)NC(=O)[C@H]([C@@H](C)O)NC(=O)[C@@H]2CCCN2C(=O)[C@@H]2CCCN2C1=O [Compound 2002, Hex-[Hcy-Pro-Pro-Thr-Gln-Phe-Hcy]-Asp-NH2] (Hexanoyl-[hCys]PPTQF[hCys]D-NH2; disulfide 1-7)	< 100	< 100		
CCCC[C@H](NC(=O)CN1CCN(CC(=O)O)CCN(CC(=O)O)CCN(CC(=O)O)CC1)C(=O)N[C@H]1CSC2=C(SC[C@@H](C(=O)N[C@@H](CC(=O)O)C(N)=O)NC(=O)[C@H](Cc3ccccc3)CC(=O)[C@H](CCC(N)=O)NC(=O)[C@H]([C@@H](C)O)NC(=O)[C@@H]3CCCN3C(=O)[C@@H]3CCCN3C1=O)C(=O)NC2=O [Compound 2003, DOTA-Nle-[Cys(mli)-Pro-Pro-Thr-Gln-Phe-Cys]-Asp-NH2] ({DOTA}-[Nle]CPPT[X1]CD-NH2; linker 2-7 via Maleimide(3,4-diyl))	< 100	< 100		
CCCC[C@H](NC(=O)COCCOCCNC(=O)CN1CCN(CC(=O)O)CCN(CC(=O)O)CCN(CC(=O)O)CC1)C(=O)N[C@H]1CSC2=C(SC[C@@H](C(=O)N[C@@H](CC(=O)O)C(N)=O)NC(=O)[C@H](Cc3ccccc3)CC(=O)[C@H](CCC(N)=O)NC(=O)[C@H]([C@@H](C)O)NC(=O)[C@@H]3CCCN3C(=O)[C@@H]3CCCN3C1=O)C(=O)NC2=O [Compound 2004, DOTA-O2Oc-Nle-[Cys(mli)-Pro-Pro-Thr-Gln-Phe-Cys]-Asp-NH2] ({DOTA-AEEA}-[Nle]CPPT[X1]CD-NH2; linker 2-7 via Maleimide(3,4-diyl))	< 100	< 100	< 100	< 100
CCCC[C@H](NC(=O)CCC(=O)NCCCOCCOCCOCCCNC(=O)CN1CCN(CC(=O)O)CCN(CC(=O)O)CCN(CC(=O)O)CC1)C(=O)N[C@H]1CSC2=C(SC[C@@H](C(=O)N[C@@H](CC(=O)O)C(N)=O)NC(=O)[C@H](Cc3ccccc3)CC(=O)[C@H](CCC(N)=O)NC(=O)[C@H]([C@@H](C)O)NC(=O)[C@@H]3CCCN3C(=O)[C@@H]3CCCN3C1=O)C(=O)NC2=O [Compound 2005, DOTA-Ttds-Nle-[Cys(mli)-Pro-Pro-Thr-Gln-Phe-Cys]-Asp-NH2]	< 100	< 100	< 100	< 100
CCCC[C@H](NC(=O)CCC(=O)NCCCOCCOCCOCCCNC(=O)CN1CCN(CC(=O)O)CCN(CC(=O)O)CCN(CC(=O)O)CC1)C(=O)N[C@H]1CSC2=C(SC[C@@H](C(=O)N[C@@H](CC(=O)O)C(=O)NCc3ccc(C(=O)N[C@@H](CCCNC(=N)N)C(N)=O)cc3)NC(=O)[C@H](Cc3ccccc3)CC(=O)[C@H](CCC(N)=O)NC(=O)[C@H]([C@@H](C)O)NC(=O)[C@@H]3CCCN3C(=O)[C@@H]3CCCN3C1=O)C(=O)NC2=O [Compound 2006, DOTA-Ttds-Nle-[Cys(mli)-Pro-Pro-Thr-Gln-Phe-Cys]-Asp-Pamb-Arg-NH2] ({X4-Suc}-[Nle]CPPT[X1]CD[4Amb]R-NH2; linker 2-7 via Maleimide(3,4-diyl))	< 100	< 100		
CCCC[C@H](NC(=O)CCC(=O)NCCCOCCOCCOCCCNC(=O)CN1CCN(CC(=O)O)CCN(CC(=O)O)CCN(CC(=O)O)CC1)C(=O)N[C@H]1CSC2=C(SC[C@@H](C(=O)O)NC(=O)[C@H](Cc3ccccc3)CC(=O)[C@H](CCC(N)=O)NC(=O)[C@H]([C@@H](C)O)NC(=O)[C@@H]3CCCN3C(=O)[C@@H]3CCCN3C1=O)C(=O)NC2=O [Compound 2008, DOTA-Ttds-Nle-[Cys(mli)-Pro-Pro-Thr-Gln-Phe-Cys]-OH]	< 100	< 100		
CCCC[C@H](NC(=O)CCC(=O)NCCCOCCOCCOCCCNC(=O)CN1CCN(CC(=O)O)CCN(CC(=O)O)CCN(CC(=O)O)CC1)C(=O)N[C@H]1CSC2=C(SC[C@@H](C(=O)NCCC(=O)O)NC(=O)[C@H](Cc3ccccc3)CC(=O)[C@H](CCC(N)=O)NC(=O)[C@H]([C@@H](C)O)NC(=O)[C@@H]3CCCN3C(=O)[C@@H]3CCCN3C1=O)C(=O)NC2=O [Compound 2009, DOTA-Ttds-Nle-[Cys(mli)-Pro-Pro-Thr-Gln-Phe-Cys]-Bal-OH]	< 100	< 100		
CCCCCC(=O)N[C@H]1CSC2=C(SC[C@@H](C(=O)N[C@@H](CCCCNC(=O)CN3CCN(CC(=O)O)CCN(CC(=O)O)CCN(CC(=O)O)CC3)CC(=O)O)NC(=O)[C@H](Cc3ccccc3)NC(=O)[C@H](CCC(N)=O)NC(=O)[C@H]([C@@H](C)O)NC(=O)[C@@H]3CCCN3C(=O)[C@@H]3CCCN3C1=O)C(=O)NC2=O [Compound 2010, Hex-[Cys(mli)-Pro-Pro-Thr-Gln-Phe-Cys]-Bhk(DOTA)-OH]	< 100	< 100		
CCCCCC(=O)N[C@H]1CSC2=C(SC[C@@H](C(=O)N[C@@H](CC(=O)O)C(=O)N[C@@H](CCCCNC(=O)CN3CCN(CC(=O)O)CCN(CC(=O)O)CCN(CC(=O)O)CC3)C(N)=O)NC(=O)[C@H](Cc3ccccc3)NC(=O)[C@H](CCC(N)=O)NC(=O)[C@H]([C@@H](C)O)NC(=O)[C@@H]3CCCN3C(=O)C3CCCN3C1=O)C(=O)NC2=O (stereo partly drawn) [Compound 2012, Hex-[Cys(mli)-Pro-Pro-Thr-Gln-Phe-Cys]-Asp-Lys(DOTA)-NH2] (Hexanoyl-C[ξP]PTQFCDK(DOTA)-NH2; linker 1-7 via Maleimide(3,4-diyl))	< 100	< 100		
CCCCNC(=O)N[C@H]1CSC2=C(SC[C@@H](C(=O)N[C@@H](CC(=O)O)C(=O)N[C@@H](CCCCNC(=O)CN3CCN(CC(=O)O)CCN(CC(=O)O)CCN(CC(=O)O)CC3)C(N)=O)NC(=O)[C@H](Cc3ccccc3)NC(=O)[C@H](CCC(N)=O)NC(=O)C([C@@H](C)O)NC(=O)[C@@H]3CCCN3C(=O)[C@@H]3CCCN3C1=O)C(=O)NC2=O (stereo partly drawn) [Compound 2014, Buur-[Cys(mli)-Pro-Pro-Thr-Gln-Phe-Cys]-Asp-Lys(DOTA)-NH2] ({NHBu-CO}-CPP[ξThr(3R)]QFCDK(DOTA)-NH2; linker 1-7 via Maleimide(3,4-diyl))	< 100	< 100		
CCCCNC(=O)N[C@H]1CSC2=C(SC[C@@H](C(=O)N[C@@H](CC(=O)O)C(=O)N[C@@H](CCCCNC(=O)CN3CCN(CC(=O)O)CCN(CC(=O)O)CCN(CC(=O)O)CC3)C(N)=O)NC(=O)[C@H](Cc3ccccc3)NC(=O)[C@H](CCC(N)=O)NC(=O)C([C@@H](C)O)NC(=O)[C@@H]3CCCN3C(=O)[C@@H]3CCCN3C1=O)C(=O)N(C)C2=O (stereo partly drawn) [Compound 2015, Hex-[Cys(mli(Me))-Pro-Pro-Thr-Gln-Phe-Cys]-Asp-Lys(DOTA)-NH2] ({NHBu-CO}-CPP[ξThr(3R)]QFCDK(DOTA)-NH2; linker 1-7 via X7)	< 100	< 100		
